From patent publication US10639306B2, “Aldose reductase inhibitors and uses thereof” (The Trustees of Columbia University in the City of New York, priority 2010, dated 2020)
Like-named read-outs stand apart in the source and are kept apart here.

Columns and labels:
[1] = Solubility in Krebs-Henseleit buffer; format: physicochemical; conditions: Krebs-Henseleit buffer with glucose, palmitate, bovine serum albumin, insulin
[2] = biological target: human recombinant aldose reductase (Homo sapiens, UniProt P15121); test: biochemical
Protocol: The reductase activity of Compound A and zopolrestat were spectrophotometrically assayed by following the decrease of NADPH at 25° C. for 4 min as described in Sato, S. (1992), “Rat kidney aldose reductase and aldehyde reductase and polyolproduction in rat kidney” Am. J. Physiol. 263, F799.F805, incorporated by reference herein in its entirety.
Briefly, the reaction mixture (total volume 1 ml) contained 0.1 mM NADPH, 100 mM substrate (DL-glyceraldehyde or L-xylose) and human recombinant aldose reductase (100 mU) in 0.1 M phosphate buffer, pH 6.2. The head to head experiment was carried out in a microplate assay for AR inhibition using D-Glyceraldehyde and NADPH and the absorbance changes were monitored at 340 nm and % inhibition was calculated for ARIs at concentrations ranging from 0.1 nM to 100 μM (Table 2 and FIG. 2). Data is presented as mean±standard deviation and is an average of 5 separate runs. The reaction was started by adding the substrate (glyceraldehyde or xylose) as well as the same reaction mixture in which the substrate replaced by deionized water was used as a control. One enzyme unit (U) was defined as the activity consuming 1 μmole of NADPH per min at 25° C.

[3] = format: physicochemical; conditions: for Area (integration of absorbance peak): 3 min, pH 7.1
Protocol: Each sample of Compound A & zopolrestat were placed, separately, in water (MQW ultra nanopure) at ambient temperature and vortexed for 3 minutes. The aliquots were then filtered through a tightly-packed cotton plug (placed in a pipette) to remove any residual solids. The attempted concentrations of the respective solutions of Compound A and zopolrestat made were 0.05 mg/mL, 0.1 mg/mL, 0.5 mg/mL, 1.0 mg/mL, 5.0 mg/mL, and 10.0 mg/mL. The pH of the water used was 7.1 (measured electronically by an Orion perpHect LogR Meter Model #370).
The filtered samples were run through a binary gradient (program: 5%-100% MeCN over 30 mins) on a LC-MS (Shimadzu LCMS-2010A Liquid Chromatography Mass Spectrometer, reverse-phase column). A 5 μL volume of each sample solution was injected for each run. Each trace contained a peak (for Compound A, TR approx. 14.070 mins; for zopolrestat, TR approx. 16.666 mins) measured at a wavelength of 254 nm for which the respective parent ion masses were observed.
By comparing the absorbance areas under the peaks corresponding to Compound A & zopolrestat in each water solution made (Table 1), a solubility curve for each compound was generated (FIG. 1).

melting point | Compound | Solubility in Krebs-Henseleit buffer [1] | IC50 [2] | Activity relative to zopolrestat in vitro against aldose reductase ([2]; fold more active than zopolrestat) | Solubility in pH 7.1 water relative to Zopolrestat [3] | Area (integration of absorbance peak) ([3]; 0.05 mg/mL) | Area (integration of absorbance peak) ([3]; 0.1 mg/mL) | Area (integration of absorbance peak) ([3]; 0.5 mg/mL) | Area (integration of absorbance peak) ([3]; 1 mg/mL) | Area (integration of absorbance peak) ([3]; 5 mg/mL) | Area (integration of absorbance peak) ([3]; 10 mg/mL) | inhibition at 1 pM [2] | inhibition at 10 pM [2]
196 to 197 °C | O=C(O)Cc1nn(Cc2nc3cc(Cl)ccc3s2)c(=O)c2nccnc12 |  |  |  |  |  |  |  |  |  |  |  | 
 | O=C(O)Cc1nn(Cc2nc3cc(C(F)(F)F)ccc3s2)c(=O)c2nccnc12 [Compound A, 2-(8-oxo-7-((5-(trifluoromethyl)benzo[d]thiazol-2-yl)methyl)-7,8-dihydropyrazino[2,3-d]pyridazin-5-yl)acetic acid] | soluble without any precipitation or turbidity | 28.9 pM | approximately 100 × | significantly greater solubility | 1811131 | 3221003 | 5814304 | 10515430 | 17216187 | 20397336 |  | 
 | O=C(O)Cc1nn(Cc2nc3cc(C(F)(F)F)ccc3s2)c(=O)c2ccccc12 [zopolrestat, reference compound] | heat was applied to render zopolrestat soluble |  |  |  | 1039247 | 1899466 | 4304556 | 6129559 | 13314544 | 13362465 | 11% | 29%
